In ChEMBL document CHEMBL4028806, “Modulators of Sphingosine-1-phosphate Pathway Biology: Recent Advances of Sphingosine-1-phosphate Receptor 1 (S1P1) Agonists and Future Perspectives” (J Med Chem, 2017):
Blank lines part the entries; values can stand above or below the compound they belong to.

How the values were obtained:
[1] = target: T1, Sphingosine 1-phosphate receptor 1 (Homo sapiens, UniProt P21453); test: Displacement of [33P]-S1P from S1P1 receptor (unknown origin) expressed in CHO cell membranes
T1 sequence (P21453 whole entry): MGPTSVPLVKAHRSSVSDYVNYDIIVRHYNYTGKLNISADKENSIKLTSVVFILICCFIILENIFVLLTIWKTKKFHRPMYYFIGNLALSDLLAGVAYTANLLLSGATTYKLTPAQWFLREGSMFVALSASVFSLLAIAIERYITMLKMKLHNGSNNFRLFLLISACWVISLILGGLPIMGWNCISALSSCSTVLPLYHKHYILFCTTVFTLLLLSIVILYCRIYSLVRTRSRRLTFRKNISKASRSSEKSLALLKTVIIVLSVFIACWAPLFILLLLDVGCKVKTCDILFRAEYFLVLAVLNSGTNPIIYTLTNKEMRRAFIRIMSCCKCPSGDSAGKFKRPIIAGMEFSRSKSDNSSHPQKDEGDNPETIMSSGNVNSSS

[2] = target: T2, Sphingosine 1-phosphate receptor 3 (Homo sapiens, UniProt Q99500); test: Displacement of [33P]-S1P from S1P3 receptor (unknown origin) expressed in CHO cell membranes
T2 sequence (Q99500 whole entry): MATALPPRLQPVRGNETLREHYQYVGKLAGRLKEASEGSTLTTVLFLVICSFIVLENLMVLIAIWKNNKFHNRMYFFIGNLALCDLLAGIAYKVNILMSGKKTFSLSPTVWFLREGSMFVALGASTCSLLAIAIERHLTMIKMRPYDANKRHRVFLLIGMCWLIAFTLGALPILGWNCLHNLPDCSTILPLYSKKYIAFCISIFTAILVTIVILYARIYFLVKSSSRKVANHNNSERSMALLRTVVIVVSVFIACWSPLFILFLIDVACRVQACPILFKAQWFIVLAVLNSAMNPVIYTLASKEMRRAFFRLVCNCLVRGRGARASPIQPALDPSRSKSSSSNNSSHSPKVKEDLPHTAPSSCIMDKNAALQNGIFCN

[3] = test system: Mus musculus; test: Reduction in peripheral lymphocyte level in mouse administered iv measured 3 hrs post dose; format: functional
[4] = Half life in po dosed Sprague-Dawley rat; format: ADME, organism-based; details: in vivo
[5] = Half life in iv dosed Sprague-Dawley rat; format: ADME, organism-based; details: in vivo
[6] = test system: Trachea; test: Induction of tracheal constriction in Wistar rat at 1 uM
[7] = test system: Trachea; test: Induction of tracheal constriction in Wistar rat at 10 uM
[8] = test system: Mus musculus; test: Reduction in peripheral lymphocyte level in Swiss mouse at 10 mg/kg, po measured 24 hrs post dose; format: functional; parameters: scale not given: the % may be the effect or the level left
[9] = test system: Rattus norvegicus; test: Reduction in peripheral lymphocyte level in rat at 10 mg/kg, po measured 6 hrs post dose; format: functional; parameters: scale not given: the % may be the effect or the level left
[10] = target: T2, Sphingosine 1-phosphate receptor 3; test: Displacement of [33P]-S1P from human S1P3 receptor expressed in CHO cell membranes
[11] = target: T1, Sphingosine 1-phosphate receptor 1; test: Displacement of [33P]-S1P from human S1P1 receptor expressed in CHO cell membranes
[12] = test system: Mus musculus; test: Immunosuppressive activity in BALB/c mouse assessed as reduction in peripheral blood lymphocytes at 30 mg/kg, ip measured 4 days post dose; format: functional; parameters: scale not given: the % may be the effect or the level left
[13] = target: T2, Sphingosine 1-phosphate receptor 3; test: Displacement of [33P]-S1P from S1P3 receptor (unknown origin) expressed in CHOK1 cells after 60 mins by microbeta scintillation proximity assay; format: cell-based
[14] = target: T1, Sphingosine 1-phosphate receptor 1; test: Displacement of [33P]-S1P from S1P1 receptor (unknown origin) expressed in CHOK1 cells after 60 mins by microbeta scintillation proximity assay; format: cell-based
[15] = target: T2, Sphingosine 1-phosphate receptor 3; test: Agonist activity at human S1P3 receptor expressed in CHO cell membranes after 45 mins by [35S] GTPgammaS binding based scintillation counting analysis; format: functional
[16] = target: T1, Sphingosine 1-phosphate receptor 1; test: Agonist activity at human S1P1 receptor expressed in CHO cell membranes after 45 mins by [35S] GTPgammaS binding based scintillation counting analysis; format: functional
[17] = test system: Mus musculus; test: Reduction in peripheral lymphocyte level in mouse administered po measured 3 hrs post dose; format: functional
[18] = Oral bioavailability in mouse; format: ADME, organism-based; details: in vivo
[19] = organism: Homo sapiens; test: Toxicity in human assessed as reduction in heart rate measured every day for 9 days; details: 216 h
[20] = organism: Homo sapiens; test: Toxicity in human assessed as reduction in heart rate at 1.25 mg measured for 2 days; details: in vivo, 48 h
[21] = organism: Homo sapiens; test: Toxicity in human assessed as reduction in heart rate at 10 mg measured on day 1; details: in vivo
[22] = organism: Homo sapiens; test: Toxicity in human assessed as reduction in heart rate at 10 mg measured 2 hrs post dose; details: in vivo

IC50 [1]: 6 nM
IC50 [2]: 7 nM
Structure (SMILES): CCCCCCCCc1ccc(CCC(N)(CO)CCP(=O)(O)O)cc1 (centres undefined)
ED50 [3]: 2.35 mg/kg

half-life [4]: 11 h
half-life [5]: 9 h
Structure (SMILES): CC(C)Cc1ccc(-c2nc(-c3ccc(CN4CC(C(=O)O)C4)cc3)no2)cc1

Activity [6]: 133%
Structure (SMILES): CCc1cc(-c2noc(-c3cc(CC(C)C)nc(OC)c3)n2)cc(C)c1OC[C@@H](O)CNC(=O)CO

Activity [6]: < 5%
Activity [7]: 100%
Structure (SMILES): CCc1cc(-c2noc(-c3cc(OC)nc(C(CC)CC)c3)n2)cc(C)c1OC[C@@H](O)CNC(=O)CO

Activity [6]: < 5%
Activity [7]: 24%
Structure (SMILES): CCc1cc(-c2noc(-c3cc(OC)nc(C(CC)CC)c3)n2)cc(C)c1OC[C@@H](O)CO

IC50 [10]: 1200 nM
IC50 [11]: 7.7 nM
Structure (SMILES): CCCCCCCCc1ccc(CNCCCC(=O)O)cc1

Ki [13]: 1040 nM
Ki [14]: 0.8 nM
Structure (SMILES): COCc1cc(-c2nc(-c3cccc(OCC(=O)O)c3)no2)ccc1-c1ccccc1C

Activity [6]: < 5%
Activity [7]: 124%
Structure (SMILES): CCc1cc(-c2noc(-c3cc(CC(C)C)nc(OC)c3)n2)cc(C)c1OC[C@@H](O)CO

EC50 [15]: > 31000 nM
EC50 [16]: 15 nM
Structure (SMILES): N#CC1(NC(=O)[C@@H](O)c2ccc(-c3noc(-c4onc(-c5ccccc5)c4C(F)(F)F)n3)cc2)CC1

Ki [13]: 2200 nM
Ki [14]: 2.9 nM
Structure (SMILES): COCc1cc(-c2nc(-c3ccc(-c4ccc(C(=O)O)c(F)c4)cc3)no2)ccc1-c1ccccc1C

bioavailability [18]: > 70%
IC50 [10]: 4900 nM
IC50 [11]: 18 nM
Structure (SMILES): CCCCCCCCc1ccc(CN2CC(C(=O)O)C2)cc1
ED50 [17]: 5.2 mg/kg

IC50 [10]: 280 nM
IC50 [11]: 8.4 nM
Structure (SMILES): CCCCCCCCc1ccc(CC[C@@H](N)CCP(=O)(O)O)cc1

half-life [4]: 5.5 h
half-life [5]: 5.5 h
Structure (SMILES): CC(C)Cc1ccc(-c2nc(-c3ccc(CN4CC(C(=O)O)C4)c(F)c3)no2)cc1 [ICANBELIMOD]

The next lines start with the compound.

Structure (SMILES): CCCCCCCCc1ccc(CC[C@@H](N)C[C@H](O)P(=O)(O)O)cc1
ED50 [3]: 0.15 mg/kg

Structure (SMILES): O=C(O)C1(C(=O)O)CC(NCc2ccc(-c3noc(-c4ccc(-c5ccccc5)c(F)c4)n3)cc2)C1
Activity [8]: 86%

Structure (SMILES): CCc1cc(-c2nnc(-c3sc(C)c4c3C[C@@H]3[C@H]4C3(C)C)o2)cc(C)n1
Activity [9]: 77%

Structure (SMILES): CCCCCCCCc1ccc2c(c1)CC(N)(CO)CC2 (centres undefined)
Activity [12]: 64%

Structure (SMILES): CCCCCCCCc1ccc(CNCCCP(C)(=O)O)cc1
IC50 [10]: 100 nM
IC50 [11]: 12 nM

Structure (SMILES): CCCCCCCCc1ccc(CCC(N)COP(=O)(O)O)cc1 (centres undefined)
ED50 [3]: 0.06 mg/kg

Structure (SMILES): CCCCCCCCc1ccc(CCC(N)(CO)CO)cc1 [FINGOLIMOD]
Activity [19]: 1 to 2 bpm
Activity [20]: 8 to 11 bpm

Structure (SMILES): CCC/N=C1\S/C(=C\c2ccc(OC[C@H](O)CO)c(Cl)c2)C(=O)N1c1ccccc1C [PONESIMOD]
Activity [21]: 10 to 12 bpm

Structure (SMILES): CCc1cc(/C(C)=N/OCc2ccc(C3CCCCC3)c(C(F)(F)F)c2)ccc1CN1CC(C(=O)O)C1 [SIPONIMOD]
Activity [22]: 16 bpm
